{"source": "patent US20200276150A1", "about": "“PARENTERAL FORMULATIONS OF MACROLIDE ANTIBIOTICS” (Tetard, Inc., priority 2010, published 2020)", "assay": "HPLC assay and impurity levels, autoclaved and non-autoclaved samples (Example 7)", "assay_type": "physicochemical", "settings": "standard, no condition given", "method": "EXAMPLE 7. Characterization of Unbuffered Formulation C Solutions with Nitrogen […] and with the Inclusion of an Antioxidant with or without a Chelating Agent. Development studies were conducted using Formulation C, Example C, and its corresponding placebo formulation. The table below details the composition of Formulation C active formulation and corresponding placebo. The solutions above were prepared by first dissolving the stabilizers in the vehicle (60 mM Tartaric acid) which was pre-prepared in nitrogen sparged water. Once dissolved, the CEM-101 API was then added slowly and allowed to mix until a complete solution was achieved. Formulations prepared were then filled into vials, crimped with an aluminium cap containing a PTFE septum and then autoclaved. Each vial was nitrogen purged prior to crimping. HPLC analyses were performed on both autoclaved and non-autoclaved samples. Refer to results in the table below for summary data on assay and impurities."}
{"smiles": "CC[C@H]1OC(=O)[C@@](C)(F)C(=O)[C@H](C)[C@@H](O[C@@H]2O[C@H](C)C[C@H](N(C)C)[C@H]2O)[C@@](C)(OC)C[C@@H](C)C(=O)[C@H](C)[C@H]2N(CCCCn3cc(-c4cccc(N)c4)nn3)C(=O)O[C@]12C", "note": "[STD 0.5 mg/mL]", "values": [{"measurement": "Total Impurities", "result": 1.867}]}
